Laboratory results reported in publication PMC4689404, “2-Benzazolyl-4-Piperazin-1-Ylsulfonylbenzenecarbohydroxamic Acids as Novel Selective Histone Deacetylase-6 Inhibitors with Antiproliferative Activity” (PLoS ONE, 2015).

Experiments:
HCC4017 cells = assay: Annexin V apoptosis assay; format: cell-based, human; details: 18h, 40h, 64h
Experimental: For cell cycle analysis, cells were washed with PBS, fixed in 70% ethanol for 2 h, washed with PBS and resuspended in staining solution (0.1% Triton X-100, 0.2 mg/ml DNAse-free RNAse A and […]) and incubated at 37C for 15 min. Histograms were acquired on a BD FACSCalibur flow cytometer at UT Southwestern’s core facility. Apoptosis was measured using a FITC Annexin V Apoptosis Detection Kit I (BD Pharmingen) according to manufacturer’s protocol after treating cells with compounds as indicated in Figure legends.

[1] = test system: 60 human tumor cell lines; assay: NCI 60 human tumor cell line screen; format: cell-based; details: for GI50: Homo sapiens, 60 cell, read-out: MID (average GI50 across the 60 cell lines); for average growth inhibition: single dose of 10 μm, 60 cell line panel
Description: To evaluate if the antiproliferative activity of the novel hydroxamic acid derived compounds was general across cancer types, selected compounds were submitted for testing in the tissue-specific panel of human tumor cell lines at the National Cancer Institute, Bethesda, USA. This screen utilizes 60 human tumor cell lines, representing leukemia, melanoma and cancers of the lung, colon, brain, ovary, kidney, prostate and breast. This cell line panel offers the advantage of having available microarray gene expression data across the 60 cell lines which can be used to determine the uniqueness of a new lead for which the molecular target(s) might not be known. The antitumor activity is presented for each cell line by three parameters, namely log10 GI50 value (GI50 = molar concentration of the compound that inhibits 50% net cell growth), log10 TG value (TGI = molar concentration of the compound leading to total inhibition of net cell growth), and log10 LC50 value (LC50 = molar concentration of the compound leading to 50% net cell death) accompanied by MID which refers to the average inhibitory value across the 60 cell lines.
In this assay, compounds 9c (NSC 747073) and 9d (NSC 747072) inhibited the proliferation of subsets of leukemia, colon, CNS, melanoma, and prostrate cancer cells to a higher extent than cells from other cancers (Fig 6A and 6B).

Colon cancer cell lines = assay: NCI 60 screen, five dose; format: cell-based, human; details: for GI50: Homo sapiens; for no. cell lines used for the assay/no inhibited by compound: figures in parenthesis
Melanoma cell lines = assay: NCI 60 screen, five dose; format: cell-based, human; details: for GI50: Homo sapiens; for no. cell lines used for the assay/no inhibited by compound: figures in parenthesis
Renal Cancer cell lines = assay: NCI 60 screen, five dose; format: cell-based, human; details: for GI50: Homo sapiens; for no. cell lines used for the assay/no inhibited by compound: figures in parenthesis
RPMI-8226 = assay: NCI 60 screen, five dose; format: cell-based; details: Homo sapiens, Leukemia, GI50 = molar concentration, read-out: Log10 GI50 (converted)
A549/ATCC = assay: NCI 60 screen, five dose; format: cell-based; details: Homo sapiens, Non-Small Cell Lung Cancer, GI50 = molar concentration, read-out: Log10 GI50 (converted)
HOP-62 = assay: NCI 60 screen, five dose; format: cell-based; details: Homo sapiens, Non-Small Cell Lung Cancer, GI50 = molar concentration, read-out: Log10 GI50 (converted)
HOP-92 = assay: NCI 60 screen, five dose; format: cell-based; details: Homo sapiens, Non-Small Cell Lung Cancer, GI50 = molar concentration, read-out: Log10 GI50 (converted)
NCI-H226 = assay: NCI 60 screen, five dose; format: cell-based; details: Homo sapiens, Non-Small Cell Lung Cancer, GI50 = molar concentration, read-out: Log10 GI50 (converted)
NCI-H23 = assay: NCI 60 screen, five dose; format: cell-based; details: Homo sapiens, Non-Small Cell Lung Cancer, GI50 = molar concentration, read-out: Log10 GI50 (converted)
NCI-H322M = assay: NCI 60 screen, five dose; format: cell-based; details: Homo sapiens, Non-Small Cell Lung Cancer, GI50 = molar concentration, read-out: Log10 GI50 (converted)
NCI-H460 = assay: NCI 60 screen, five dose; format: cell-based; details: Homo sapiens, Non-Small Cell Lung Cancer, GI50 = molar concentration, read-out: Log10 GI50 (converted)
NCI-H522 = assay: NCI 60 screen, five dose; format: cell-based; details: Homo sapiens, Non-Small Cell Lung Cancer, GI50 = molar concentration, read-out: Log10 GI50 (converted)
COLO 205 = assay: NCI 60 screen, five dose; format: cell-based; details: Homo sapiens, Colon Cancer, GI50 = molar concentration, read-out: Log10 GI50 (converted)
HCC-2998 = assay: NCI 60 screen, five dose; format: cell-based; details: Homo sapiens, Colon Cancer, GI50 = molar concentration, read-out: Log10 GI50 (converted)
HCT-15 = assay: NCI 60 screen, five dose; format: cell-based; details: Homo sapiens, Colon Cancer, GI50 = molar concentration, read-out: Log10 GI50 (converted)
KM12 = assay: NCI 60 screen, five dose; format: cell-based; details: Homo sapiens, Colon Cancer, GI50 = molar concentration, read-out: Log10 GI50 (converted)
SF-268 = assay: NCI 60 screen, five dose; format: cell-based; details: Homo sapiens, CNS Cancer, GI50 = molar concentration, read-out: Log10 GI50 (converted)
SF-295 = assay: NCI 60 screen, five dose; format: cell-based; details: Homo sapiens, CNS Cancer, GI50 = molar concentration, read-out: Log10 GI50 (converted)
MALME-3M = assay: NCI 60 screen, five dose; format: cell-based; details: Homo sapiens, Melanoma, GI50 = molar concentration, read-out: Log10 GI50 (converted)
M14 = assay: NCI 60 screen, five dose; format: cell-based; details: Homo sapiens, Melanoma, GI50 = molar concentration, read-out: Log10 GI50 (converted)
SK-MEL-28 = assay: NCI 60 screen, five dose; format: cell-based; details: Homo sapiens, Melanoma, GI50 = molar concentration, read-out: Log10 GI50 (converted)
UACC-257 = assay: NCI 60 screen, five dose; format: cell-based; details: Homo sapiens, Melanoma, GI50 = molar concentration, read-out: Log10 GI50 (converted)
UACC-62 = assay: NCI 60 screen, five dose; format: cell-based; details: Homo sapiens, Melanoma, GI50 = molar concentration, read-out: Log10 GI50 (converted)
OVCAR-8 = assay: NCI 60 screen, five dose; format: cell-based; details: Homo sapiens, Ovarian Cancer, GI50 = molar concentration, read-out: Log10 GI50 (converted)
SN12C = assay: NCI 60 screen, five dose; format: cell-based; details: Homo sapiens, Renal Cancer, GI50 = molar concentration, read-out: Log10 GI50 (converted)
TK-10 = assay: NCI 60 screen, five dose; format: cell-based; details: Homo sapiens, Renal Cancer, GI50 = molar concentration, read-out: Log10 GI50 (converted)
UO-31 = assay: NCI 60 screen, five dose; format: cell-based; details: Homo sapiens, Renal Cancer, GI50 = molar concentration, read-out: Log10 GI50 (converted)
PC-3 = assay: NCI 60 screen, five dose; format: cell-based; details: Homo sapiens, Prostate Cancer, GI50 = molar concentration, read-out: Log10 GI50 (converted)
MCF7 = assay: NCI 60 screen, five dose; format: cell-based; details: Homo sapiens, Breast Cancer, GI50 = molar concentration, read-out: Log10 GI50 (converted)
MDA-MB-231/ATCC = assay: NCI 60 screen, five dose; format: cell-based; details: Homo sapiens, Breast Cancer, GI50 = molar concentration, read-out: Log10 GI50 (converted)
SR = assay: NCI 60 screen, five dose; format: cell-based; details: Homo sapiens, Leukemia, GI50 = molar concentration, read-out: Log10 GI50 (converted)
HT29 = assay: NCI 60 screen, five dose; format: cell-based; details: Homo sapiens, HT-29, Colon Cancer, GI50 = molar concentration, read-out: Log10 GI50 (converted)
OVCAR-3 = assay: NCI 60 screen, five dose; format: cell-based; details: Homo sapiens, Ovarian Cancer, GI50 = molar concentration, read-out: Log10 GI50 (converted)

In the case of `O=C(NO)c1ccc(S(=O)(=O)N2CCN(c3nc4ccccc4o3)CC2)cc1` [Compound 9c, 4-(4-Benzoxazol-2-yl-piperazin-1-sulfonyl)-N -hydroxy-benzamid], the “Annexin V staining, percent of dead cells” value (HCC4017 cells) is reported as “did not show any reproducible significant changes”, the GI50 ([1]; five dose assay) is reported as 6.61 µM and the average growth inhibition [1] is reported as 50%. The GI50 (Colon cancer cell lines) was 6.05 µM, the “no. cell lines used for the assay/no inhibited by compound” value (Colon cancer cell lines) was 4/6 and the GI50 (Melanoma cell lines) was 5.62 µM. The “no. cell lines used for the assay/no inhibited by compound” value (Melanoma cell lines) was 6/8, the GI50 (Renal Cancer cell lines) was 8.24 µM and the “no. cell lines used for the assay/no inhibited by compound” value (Renal Cancer cell lines) was 3/8. For the same compound, the GI50 (RPMI-8226) was 0.38 µM, the GI50 (A549/ATCC) was 13.5 µM and the GI50 (HOP-62) was 12 µM. It also gave a GI50 (HOP-92) of 6.03 µM, a GI50 (NCI-H226) of 20.9 µM and a GI50 (NCI-H23) of 3.72 µM. For the same compound, the GI50 (NCI-H322M) was 14.5 µM, the GI50 (NCI-H460) was 10.7 µM and the GI50 (NCI-H522) was 6.03 µM. It also gave a GI50 (COLO 205) of 1.7 µM, a GI50 (HCC-2998) of 17.4 µM and a GI50 (HCT-15) of 18.2 µM. For the same compound, the GI50 (KM12) was 5.13 µM, the GI50 (SF-268) was 12 µM and the GI50 (SF-295) was 3.09 µM. For the same compound, the GI50 (MALME-3M) was 1.38 µM, the GI50 (M14) was 5.89 µM and the GI50 (SK-MEL-28) was 4.57 µM. For the same compound, the GI50 (UACC-257) was 6.46 µM, the GI50 (UACC-62) was 4.27 µM and the GI50 (OVCAR-8) was 3.24 µM. It also gave a GI50 (SN12C) of 11.7 µM, a GI50 (TK-10) of 7.94 µM and a GI50 (UO-31) of 10.7 µM. It also gave a GI50 (PC-3) of 3.24 µM, a GI50 (MCF7) of 3.8 µM and a GI50 (MDA-MB-231/ATCC) of 13.2 µM.
For `Cn1c(N2CCN(S(=O)(=O)c3ccc(C(=O)NO)cc3)CC2)nc2ccccc21` [Compound 9b, 4-[4-(1-methylbenzimidazol-2-yl)piperazin-1-yl]sulfonylbenzenecarbohydroxamic acid], the “Annexin V staining, percent of dead cells” value (HCC4017 cells) was “did not show any reproducible significant changes”.
`O=C(NO)c1ccc(S(=O)(=O)N2CCN(c3nc4ccccc4s3)CC2)cc1` [Compound 9d, 4-(4-Benzothiazol-2-yl-piperazin-1-sulfonyl)-N -hydroxy-benzamid] was tested, and the GI50 ([1]; five dose assay) was 3.16 µM, the “more potent overall by a factor, compared to 9c” value ([1]; MID, five dose assay) was 2 and the average growth inhibition [1] was 62%. The GI50 (Colon cancer cell lines) was 2.3 µM, the “no. cell lines used for the assay/no inhibited by compound” value (Colon cancer cell lines) was 6/7 and the GI50 (Melanoma cell lines) was 2.66 µM. For the same compound, the “no. cell lines used for the assay/no inhibited by compound” value (Melanoma cell lines) was 5/8, the GI50 (Renal Cancer cell lines) was 3.94 µM and the “no. cell lines used for the assay/no inhibited by compound” value (Renal Cancer cell lines) was 3/8. It also gave a GI50 (RPMI-8226) of 1.38 µM, a GI50 (SR) of 1.12 µM and a GI50 (A549/ATCC) of 3.63 µM. It also gave a GI50 (HOP-62) of 3.8 µM, a GI50 (HOP-92) of 2.57 µM and a GI50 (NCI-H226) of 10 µM. For the same compound, the GI50 (NCI-H23) was 1.55 µM, the GI50 (NCI-H322M) was 5.62 µM and the GI50 (NCI-H460) was 5.13 µM. It also gave a GI50 (NCI-H522) of 2.29 µM, a GI50 (COLO 205) of 3.02 µM and a GI50 (HCC-2998) of 2.14 µM. The GI50 (HCT-15) was 3.98 µM, the GI50 (HT29) was 5.62 µM and the GI50 (KM12) was 2.14 µM. For the same compound, the GI50 (SF-268) was 3.98 µM, the GI50 (SF-295) was 1.86 µM and the GI50 (MALME-3M) was 2.57 µM. It also gave a GI50 (M14) of 1.62 µM, a GI50 (SK-MEL-28) of 1.58 µM and a GI50 (UACC-257) of 3.55 µM. The GI50 (UACC-62) was 1.7 µM, the GI50 (OVCAR-3) was 3.02 µM and the GI50 (OVCAR-8) was 1.7 µM. It also gave a GI50 (SN12C) of 10.5 µM, a GI50 (TK-10) of 3.63 µM and a GI50 (UO-31) of 4.37 µM. The GI50 (PC-3) was 2.04 µM, the GI50 (MCF7) was 15.8 µM and the GI50 (MDA-MB-231/ATCC) was 5.01 µM.
